Reference: patent EP0399716A1, “Hypoallergenic steroidal anesthetic/hypnotic compositions” (INNOVET, INC., priority 1989, dated 1990)

Tested on: horses
Assay: Alfaxalone/HPCD anesthesia in the horse
Description: In the first stage, two horses were anesthetized after heavy premedication with xylazine (0.6 mg/kg). […] Heart rate, respiratory rate, blood pressure, ECG and ventilation were monitored throughout the anesthesia period.
The same parameters as in the first stage were monitored.
Cardiopulmonary parameters were monitored as before.
To provide some comparison in the above stages, the two horses were anesthetized with thiamylal sodium (8 mg/kg) after the same premedication as before and a similar monitoring regime followed.
A third horse was obtained and the same regimen was followed as in the third stage, but three "top-ups" of one-third induction dose were administered at 10 minute intervals. Similar monitoring as above was continued.
Blood pressure was measured from an acutely placed antraarterial catheter and read through a transducer/digital readout system which included an ECG tracing oscilloscope.

Compound: CC(=O)[C@H]1CC[C@H]2[C@@H]3CC[C@H]4C[C@H](O)CC[C@]4(C)[C@H]3C(=O)C[C@]12C (stereo in doubt) [alfaxalone, 3α-hydroxy-5α-pregnane-11,20-dione]
- recoveries classified as excellent (alfaxalone alone recoveries): Four of the five

Compound: C=CCC1(C(C)CCC)C(=O)N=C(S)NC1=O (stereo not drawn) [thiamylal, thiamylal sodium]
- blood pressure effect (after xylazine premedication): the same effect

Compound: Cc1cccc(C)c1N=C1NCCCS1 [xylazine]
- sedation (0.6 mg/kg i.v.): good sedation without ataxia
